Literature values in patent US20100104622A1, “Ligand Targeted Nanocapsules for the delivery of RNAi and other Agents” (priority 2008, published 2010).

Tested on: advanced stage melanoma
Conditions: melanoma patients

For `COc1cccc2c1C(=O)c1c(O)c3c(c(O)c1C2=O)C[C@@](O)(C(=O)CO)C[C@@H]3O[C@H]1C[C@H](N)[C@H](O)[C@H](C)O1` [Doxorubicin], the “efficacy in advanced stage melanoma” value is listed as “essentially ineffective”.
